Earlier results on one molecule are cited in US20040084867A1, “Individualization of therapy with anticoagulants” (Xanthus Life Sciences, Inc., priority 2002, published 2004).

Where two headings read alike, the source gives them in different places.

The subject of data set [1] is CYP2C9. Conditions: cited from earlier work.
The target in data set [2] is CYP2C9 (Homo sapiens, UniProt P11712). Conditions: in vivo; cited from earlier work.
Data set [3] relates to individuals treated with warfarin. Conditions: cited from earlier work.
Data set [4] has as its system individuals with deep vein thrombosis. Conditions: cited from earlier work.

Chain of CYP2C9 (Homo sapiens, UniProt P11712) (P11712 whole entry): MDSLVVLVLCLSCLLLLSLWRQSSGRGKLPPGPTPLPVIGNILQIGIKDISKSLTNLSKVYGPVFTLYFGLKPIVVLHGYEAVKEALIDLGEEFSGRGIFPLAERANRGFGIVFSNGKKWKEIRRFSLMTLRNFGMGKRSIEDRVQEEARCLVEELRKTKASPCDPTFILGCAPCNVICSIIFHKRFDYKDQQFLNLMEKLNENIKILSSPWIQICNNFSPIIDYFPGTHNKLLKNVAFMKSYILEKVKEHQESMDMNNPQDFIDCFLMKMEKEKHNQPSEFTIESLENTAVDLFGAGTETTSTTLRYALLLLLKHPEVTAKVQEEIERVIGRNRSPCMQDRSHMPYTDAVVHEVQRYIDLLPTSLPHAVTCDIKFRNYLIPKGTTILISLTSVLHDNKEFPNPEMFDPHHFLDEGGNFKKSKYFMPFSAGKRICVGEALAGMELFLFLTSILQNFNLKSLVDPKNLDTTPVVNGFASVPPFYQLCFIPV

For the molecule `CC(=O)CC(c1ccccc1)c1c(O)c2ccccc2oc1=O` (racemic) [warfarin], the “MD (daily maintenance dose)” value with CYP2C9 [1] (1 individual, not specified, *3/*3) is 0.5 mg/day; in the data set with CYP2C9 [1] (47 Japanese, *1/*3), 1.75 mg/day; in the data set with CYP2C9 [1] (47 Japanese, *3/*3) it was 0.4 mg/day; in the data set on CYP2C9 [1] (52 British, *1/*2, *2/*2), 3.5 mg/day; in the data set with CYP2C9 [1] (52 British, *1/*3), 2.5 mg/day; in the data set with CYP2C9 [1] (94 British, CYP2C9 *1/*2), 3.8 mg/day. Further, the “MD (daily maintenance dose)” value was 5.2 mg/day in the data set on CYP2C9 [1] (180 Caucasian, *1/*2, *2/*2); 3.8 mg/day in the data set on CYP2C9 [1] (180 Caucasian, *1/*3); 1.8 mg/day in the data set with CYP2C9 [1] (180 Caucasian, *2/*3); 4.31 mg/day with CYP2C9 [1] (561 British, *1/*2); 3.97 mg/day in the data set with CYP2C9 [1] (561 British, *1/*3); 3.04 mg/day with CYP2C9 [1] (561 British, *2/*2). The “MD (daily maintenance dose)” value with CYP2C9 [1] (561 British, *2/*3) was 4.09 mg/day. The “MD (maintenance dose)” value in the data set with CYP2C9 [1] (38 Caucasian and African-American, *1/*3, *1/*2, *2/*2, CYP2A6*1/*2) is recorded as “MD; 0.307 (*1/*3, *1/*2, *2/*2, CYP2A6*1/*2) mg/kg/wk”; on CYP2C9 [2], “vs. 0.397 (*1/*1) mg/kg/wk”. The “share of group with at least 1 of *3 or *2 allele” value in the data set on CYP2C9 [1] (88 British, control group) was 1 of *3 or *2 allele vs. only 38% of control. Besides, the “risks of major bleeding” value with CYP2C9 [1] (88 British, low dose group) is reported as “group; ↑ risks of major bleeding in the low dose”. In addition, in the data set with CYP2C9 [1] (subjects requiring a high dose (>55 mg/week)), the “share of subjects homozygous for CYP2C9*1” value is 83%. The “share of subjects heterozygous for CYP2C9*2” value in the data set on CYP2C9 [1] (subjects requiring a low dose (5-15 mg/week)) is reported as 90%. Further, the effective daily doses in data set [3] (inter-individual range) was 1 to 60 mg/day. Besides, the “daily dose required to maintain efficacy while avoiding side effects” value in data set [3] (varies from one individual to another) was 0.5 to 60 mg. The recurrence rate result in data set [4] (Lagerstedt 1985, calf vein thrombosis, heparin 5 days then warfarin 3 months vs only heparin […] days) was “no recurrences”. Besides, in data set [4] (both groups: INR 2.5 to 4.5 and INR 2.0 to 2.5), the incidence of recurrence entry was “approximately 2%”.
